Assay: Conversion of the crystal form when suspended and stirred in solvent
Format: physicochemical
Details: room temperature, seven days
Text: The anhydrate crystal form (Form D) can be converted to other crystal forms under suitable conditions.

C=Cc1cc(O)cc2nc(-c3ccc(O)c(F)c3)oc12 [Form D, 2-(3-fluoro-4-hydroxyphenyl)-7-vinyl-1,3-benzoxazol-5-ol]
crystal form conversion after suspension and stirring (in acetone): another anhydrate crystal form is obtained
crystal form conversion after suspension and stirring (in ethanol): another anhydrate crystal form is obtained
crystal form conversion after suspension and stirring (in methanol): another anhydrate crystal form is obtained
crystal form conversion after suspension and stirring (in water): most of the anhydrate crystal form is converted to a hydrate crystal form

From patent US20080132554A1, “CRYSTAL FORM OF 2-(3-FLUORO-4-HYDROXYPHENYL)-7-VINYL-1,3-BENZOXAZOL-5-OL” (WYETH, priority 2006, published 2008)
